Results from patent US7109338B2, “1,2-disubstituted 1,4-dihydro-4-oxoquinoline compounds” (priority 1999, dated 2006).
Converted amounts (≈) assume the structure as drawn.

Assays:
[1] = tested on: human rhinovirus type 1B (HRV 1B, B632); test: Anti-rhinovirus activity (MTT), HRV1B; assay type: cell-based; settings: HeLa (Ohio strain) cells, MTT method, 33° C.
[2] = tested on: echovirus type 11 (Echo 11, Gregory); test: In vitro anti-picornavirus activity (MTT), Echo 11; assay type: cell-based; settings: HeLa-S3 cells, MTT method, 37° C.
HRV 89 (41617-Gallo) = test: Anti-rhinovirus activity (MTT), HRV89; assay type: cell-based, human rhinovirus; settings: HeLa (Ohio strain) cells, MTT method, 33° C.
[3] = tested on: coxsackievirus type A7 (CA7); test: In vitro anti-picornavirus activity (MTT), CA7; assay type: cell-based; settings: HeLa-S3 cells, MTT method, 37° C.
HeLa cells = test: Cytotoxicity (MTT, without virus), HeLa; settings: HeLa, no virus, incubated for 4 days
HRV 2 (HGP) = test: Anti-rhinovirus activity (MTT), HRV2; assay type: cell-based, human rhinovirus; settings: HeLa (Ohio strain) cells, MTT method, 33° C.
[4] = tested on: Poliovirus type 1 (Polio 1, Sabin); test: microbe, parasite or virus in culture; assay type: cell-based
HeLa-S3 cells = test: Cytotoxicity (MTT, without virus), HeLa-S3; settings: HeLa-S3, no virus, incubated for 4 days
HeLa (Ohio strain)cells = test: Cytotoxicity (MTT, without virus), HeLa(Ohio); settings: HeLa(Ohio), no virus, incubated for 4 days
[5] = tested on: coxsackievirus type B4 (CB4,JVB); test: In vitro anti-picornavirus activity (MTT), CB4; assay type: cell-based; settings: HeLa cells, MTT method, 37° C.

Row | SMILES | IC50 HRV1B [1] [µg/mL] | IC50 Echo 11 [2] [µg/mL] | IC50 HRV89 (HRV 89 (41617-Gallo)) [µg/mL] | IC50 CA7 [3] [µg/mL] | Cytotoxicity CC50 HeLa (HeLa cells) [µg/mL] | IC50 HRV2 (HRV 2 (HGP)) [µg/mL] | IC50 Polio 1 [4] [µg/mL] | Cytotoxicity CC50 HeLa-S3 (HeLa-S3 cells) [µg/mL] | Cytotoxicity CC50 HeLa(Ohio) (HeLa (Ohio strain)cells) [µg/mL] | IC50 CB4 [5] [µg/mL]
1 | COc1cc2c(=O)c(C)c(-c3ccccc3)n(C)c2cc1C(C)C [Compound A226] | 1.6 (≈ 4.98 µM) | 0.33 (≈ 1.03 µM) | <0.033 | 9.7 (≈ 30.2 µM) | >10 | 0.73 (≈ 2.27 µM) | 0.93 (≈ 2.89 µM) | >10 | >10 | >3.3
2 | CCn1c(-c2ccccc2)c(C)c(=O)c2cc(N3CCOCC3)ccc21 [Compound A169] | 8.2 (≈ 23.5 µM) | 1.1 (≈ 3.16 µM) | 5.4 (≈ 15.5 µM) | >50 | >50 | 1.0 (≈ 2.87 µM) | 4.3 (≈ 12.3 µM) | >50 | >50 | 18 (≈ 51.7 µM)
3 | Cc1cc(-c2cc(=O)c3cc(C(C)C)ccc3n2C)ccc1OC(C)C [Compound A100] | 0.85 (≈ 2.43 µM) | 0.24 (≈ 0.687 µM) | 0.20 (≈ 0.572 µM) | 4.5 (≈ 12.9 µM) | >5 | 0.43 (≈ 1.23 µM) | 0.57 (≈ 1.63 µM) | >5 | >5 | 1.4 (≈ 4.01 µM)
4 | Cc1c(-c2ccccc2)n(C)c2ccc(OCC(C)C)c(N)c2c1=O.Cl [Compound A194] | 0.05 | 0.45 | 0.18 | 1.7 | >2.5 | 0.49 | 0.58 | >2.5 | >2.5 | 1.3
5 | CCn1c(-c2cccc(C)c2)c(C)c(=O)c2c(Cl)c(OCC(C)C)ccc21 [Compound A181] | 1.6 (≈ 4.17 µM) | 0.24 (≈ 0.625 µM) | 0.46 (≈ 1.2 µM) | 2.4 (≈ 6.25 µM) | >2.5 | 0.94 (≈ 2.45 µM) | 0.39 (≈ 1.02 µM) | >2.5 | >2.5 | 1.8 (≈ 4.69 µM)
6 | CCn1c(-c2ccc(OC)c(C)c2)cc(=O)c2cc(C(C)C)ccc21 [Compound A98] | 0.78 (≈ 2.33 µM) | 0.26 (≈ 0.775 µM) | 0.36 (≈ 1.07 µM) | 2.9 (≈ 8.65 µM) | >4 | 0.42 (≈ 1.25 µM) | 0.66 (≈ 1.97 µM) | >4 | >4 | 1.2 (≈ 3.58 µM)
7 | COc1ccc(-c2cc(=O)c3cc(C(C)C)ccc3n2C)cc1C [Compound A97] | 0.58 (≈ 1.8 µM) | 0.3 (≈ 0.933 µM) | 0.14 (≈ 0.436 µM) | 2.1 (≈ 6.53 µM) | 5.1 | 0.61 (≈ 1.9 µM) | 0.54 (≈ 1.68 µM) | >10 | 4.5 | 1.4 (≈ 4.36 µM)
8 | CCn1c(-c2cccc(OC)c2)c(C)c(=O)c2cc(C(C)C)ccc21 [Compound A78] | 5.6 (≈ 16.7 µM) | 1.2 (≈ 3.58 µM) | 2.9 (≈ 8.65 µM) | 7.1 (≈ 21.2 µM) | >8 | 1.7 (≈ 5.07 µM) | 1.3 (≈ 3.88 µM) | >8 | >8 | 2.6 (≈ 7.75 µM)
9 | CC(C)c1ccc2c(c1)c(=O)cc(-c1ccc(Cl)c(Cl)c1)n2C [Compound A61] | 0.64 (≈ 1.85 µM) | 0.40 (≈ 1.16 µM) | 0.38 (≈ 1.1 µM) | >4 | >4 | 0.65 (≈ 1.88 µM) | 0.73 (≈ 2.11 µM) | >4 | >4 | >4
10 | CCOc1ccc(-c2cc(=O)c3cc(C(C)C)ccc3n2C)cc1C [Compound A99] | 0.63 (≈ 1.88 µM) | 0.20 (≈ 0.596 µM) | 0.14 (≈ 0.417 µM) | 1.8 (≈ 5.37 µM) | 5.4 | 0.50 (≈ 1.49 µM) | 0.55 (≈ 1.64 µM) | 5.8 | 5.7 | 1.1 (≈ 3.28 µM)
